Experimental data taken from patent US6429209B2, “Methods for treating irritable bowel syndrome” (SmithKline Beecham Corporation, priority 1997, dated 2002).
Where two headings read alike, the source gives them in different places.

Assays:
normal volunteers = conditions: cited from earlier work
IBS patients [1] = conditions: cited from earlier work
IBS patients [2] = test: 12-week placebo-controlled clinical study of alosetron (1, 2, 4 or 8 mg BID) in nonconstipated IBS patients; format: in vivo, human; conditions: for % Responders (adequate relief of IBS pain and discomfort): 12 weeks; for % Days with Urgency / Stool # per day / Stool Consistentcy: mean, week 9-12 interval; for Stool Consistentcy: score 1= very hard to 5= watery; for % Weeks with adequate relief: median
Method: Three hundred and seventy IBS patients were randomised for study: 80 were randomised to treatment with placebo BID, 72 to 1 mg BID alosetron, 74 to 2 mg BID alosetron, 76 to 4 mg BID alosetron and 68 to 8 mg BID alosetron. […] Patients were required to have symptoms which fulfilled the Rome Criteria for IBS (5) for at least 6 months. […] Daily and weekly symptom data were collected using a recently described electronic touch-tone telephone based system (24,25). Patients underwent a 2 week screening period with no IBS treatment to ensure sufficient baseline level of abdominal pain as well as compliance with the data collection system. Pain was assessed daily on a 5 point scale (0=none; 1=mild; 2=moderate; 3=intense; 4=severe). Average baseline pain over the 2 week screening period was required to be between 1.5-3.3, inclusive, and at least 4 days with at least moderate pain was required for enrolment into the study. Stool consistency data were also collected (1=very hard; 2=hard; 3=formed; 4=loose; and 5=watery). During the screening period an average stool consistency score of ≧2.5 was required for entry into the study in order to exclude those with predominant constipation. Following the screening period, eligible patients were randomised with equal allocation to 12 weeks of study medication (BID) of placebo or alosetron 1, 2, 4 or 8 mg taken prior to meals. Patients were followed for 2 weeks post-treatment. During the screening period, treatment phase and follow-up period, patients were asked daily questions about their IBS symptoms. Once every 7 days, during the treatment phase of the study, patients responded to an additional question as to whether they had obtained adequate relief of their IBS-related abdominal pain and discomfort during the previous 7 days. For this study, a responder was prospectively defined as a patient who completed the treatment phase of the study and reported adequate relief of their IBS pain and discomfort for at least 6 weeks. […] In addition, a monthly responder was defined as a patient who reported adequate relief of their IBS pain and discomfort for at least 2 weeks per month. For the monthly analysis, a last observation carried forward procedure was employed, whereby a month with all missing weeks was assigned the number of weeks with adequate relief from the previous non-missing month. Thus, this analysis satisfied the Intent-to-Treat principle by including all patients and months. Treatment groups were compared for the proportion of patients defined as responders, for both endpoints, using a Mantel-Haenszel test stratified for investigator cluster. Finally, the proportion of weeks with adequate relief was compared between treatment groups using a log-rank test. Daily stool consistency scores and daily number of bowel movements were averaged over the baseline, weekly for weeks 1-4, and monthly (weeks 1-4, 5-8, and 9-12) intervals. In addition, the proportion of days patients experienced a sense of urgency was calculated over the monthly and weekly intervals. For the monthly intervals, the treatment groups were compared for change from baseline using a van Elteren test adjusted for investigator cluster. For the weekly intervals, the treatment groups were compared at each week using a van Elteren test adjusted for-investigator cluster.

[3] = female patients, alosetron 1 mg BID
[4] = female patients, alosetron 1 mg BID, month 1
[5] = female patients, alosetron 1 mg BID, month 2
[6] = female patients, alosetron 1 mg BID, month 3
[7] = female patients, alosetron 2 mg BID
[8] = female patients, alosetron 4 mg BID
[9] = female patients, alosetron 8 mg BID

Compound: Cc1nccn1CC1CCc2c(c3ccccc3n2C)C1=O (stereo not shown) [ondansetron]
- contractile response of the colon (normal volunteers; healthy volunteers, early postprandial period): inhibits the contractile response of the colon
- colonic transit (normal volunteers; normal volunteers): slow colonic transit
- stool consistency (IBS patients [1]; diarrhoea-predominant IBS patients): improves stool consistency
- rectal compliance (IBS patients [1]; patients with IBS): increases rectal compliance

Compound: Cc1[nH]cnc1CN1CCc2c(c3ccccc3n2C)C1=O [Alosetron, 2,3,4,5-tetrahydro-5-methyl-2-[(5-methyl-1 H-imidazol-4-yl)methyl]-1H-pyrido[4,3-b]indol-1-one]
- abdominal pain and bowel function (IBS patients [2]; female IBS patients): significantly improved
- more responders for adequate relief as compared to placebo (IBS patients [2]; [3]): 27%
- % Responders (adequate relief of IBS pain and discomfort) (IBS patients [2]; [3]): 60%
- monthly adequate relief (IBS patients [2]; female patients, alosetron 1 mg BID, each month): statistically significant improvement
- % Responders, monthly intervals (adequate relief) (IBS patients [2]; [4]): 53%
- increase in monthly responders above placebo (IBS patients [2]; [4]): 21%
- % Responders, monthly intervals (adequate relief) (IBS patients [2]; [5]): 62%
- increase in monthly responders above placebo (IBS patients [2]; [5]): 20%
- % Responders, monthly intervals (adequate relief) (IBS patients [2]; [6]): 60%
- increase in monthly responders above placebo (IBS patients [2]; [6]): 24%
- % Responders (adequate relief of IBS pain and discomfort) (IBS patients [2]; [7]): 59%
- % Responders (adequate relief of IBS pain and discomfort) (IBS patients [2]; [8]): 51%
- % Responders (adequate relief of IBS pain and discomfort) (IBS patients [2]; [9]): 52%
- time of treatment after which a statistically significant benefit over placebo in bowel parameters was achieved (IBS patients [2]; female patients, benefit persisted throughout 12 week treatment): 1 week
- % Days with Urgency (IBS patients [2]; [3]): 33.0%
- Stool # per day (IBS patients [2]; [3]): 1.4
- Stool Consistentcy (IBS patients [2]; [3]): 2.1
- % Days with Urgency (IBS patients [2]; [7]): 35.9%
- Stool # per day (IBS patients [2]; [7]): 1.7
- Stool Consistentcy (IBS patients [2]; [7]): 2.2
- % Days with Urgency (IBS patients [2]; [8]): 37.8%
- Stool # per day (IBS patients [2]; [8]): 1.8
- Stool Consistentcy (IBS patients [2]; [8]): 2.4
- % Days with Urgency (IBS patients [2]; [9]): 41.5%
- Stool # per day (IBS patients [2]; [9]): 1.3
- Stool Consistentcy (IBS patients [2]; [9]): 1.8
- % Weeks with adequate relief (IBS patients [2]; [3]): 58%
- % Weeks with adequate relief (IBS patients [2]; [7]): 50%
- % Weeks with adequate relief (IBS patients [2]; [8]): 50%
- % Weeks with adequate relief (IBS patients [2]; [9]): 50%
- stool consistency, bowel movement frequency and proportion of days with urgency as compared to placebo (IBS patients [2]; female patients, most doses of alosetron): significantly improved
- proportion of weeks with adequate relief (IBS patients [2]; male patients): no meaningful benefit
- % Responders (adequate relief of IBS pain and discomfort) (IBS patients [2]; male patients, alosetron 1 mg BID): 20%
- % Responders (adequate relief of IBS pain and discomfort) (IBS patients [2]; male patients, alosetron 2 mg BID): 50%
- % Responders (adequate relief of IBS pain and discomfort) (IBS patients [2]; male patients, alosetron 4 mg BID): 54%
- % Responders (adequate relief of IBS pain and discomfort) (IBS patients [2]; male patients, alosetron 8 mg BID): 52%
- responders for adequate relief relative to placebo (IBS patients [2]; male population, any dose of alosetron): No meaningful improvement relative to placebo
- bowel-related functions with the exception of stool consistency, versus placebo (IBS patients [2]; males): no significant improvement over placebo
- monthly adequate relief relative to placebo (IBS patients [2]; males, any month, any dose of alosetron): No improvement relative to placebo
- stool consistency (IBS patients [2]; males, doses of alosetron higher than 1 mg BID): improved significantly
- tolerability (IBS patients [2]; nonconstipated female IBS patients): well tolerated
- colonic transit (IBS patients [1]; IBS patients, preliminary reports): slow colonic transit
- abdominal pain (IBS patients [1]; preliminary reports): improve abdominal pain

Compound: CN1C2CCCC1CC(NC(=O)c1nn(C)c3ccccc13)C2 (stereo not shown) [granisetron]
- post-prandial motor activity (IBS patients [1]; IBS patients): reduce post-prandial motor activity
- rectal sensitivity (IBS patients [1]; IBS patients): decrease in rectal sensitivity
